The nature of this test: mitochondrial fusion inhibitors, confirmation, cell-based, chemical genetic, wild-type and mutant (AID 1361). The conditions noted are these: Cell-based mitochondrial fusion phenotype, imaging.
The mark [1] stands for this setting: mutant cells, measured here: mutant cell line IC50.

Calls of active or inactive are those of the source. The rule behind the calls is not given here.

In the case of `CCCCCOc1ccc2oc(=O)c3c(c2c1)CCCN3C(=O)CN1CCCC(C(=O)OCC)C1` (configuration not stated), the IC50 by setting is: (WT cells) > 25 µM (inactive); under setting [1], over 25 µM.

In the case of `Cn1c(CN2CCCCC2)nc2cc(NC(=O)c3ccc(Cl)cc3)ccc21`, the IC50 is > 25 µM (inactive) (WT cells) and over 25 µM under setting [1].

On to `CCc1nn(C(C)C(=O)NCCN2CCN(c3cccc(C)c3C)CC2)c(=O)c2cc3occc3n12` (configuration not stated), for which the IC50 was > 25 µM (inactive) (WT cells) and over 25 µM under setting [1].

Turning to `O=C(c1ccc2c(c1)OCO2)N(Cc1ccco1)C1(C(=O)NC2CCCCC2)CCCCC1`, the IC50 is, setting by setting: (WT cells) > 25 µM (inactive); under setting [1], over 25 µM.

Turning to `Cc1[nH]c2ccc(F)cc2c1CCN(Cc1ccco1)C(=S)NC(C)(C)C`, the IC50 is, setting by setting: (WT cells) 12.5 µM; under setting [1], over 25 µM.

As for `COc1ccc(NC(=S)NCCC(c2ccccc2)c2ccccc2)c(OC)c1`, the IC50 (WT cells) was 7.67 µM and the IC50 under setting [1] is over 25 µM.

Consider `O=C(CN1C(=O)COc2ccccc21)N(Cc1cccnc1)Cc1cccc(F)c1`, for which the IC50 was > 25 µM (inactive) (WT cells) and over 25 µM under setting [1].

With `COc1cccc(-c2cnc(OC(C)(C)C)nc2OC(C)(C)C)c1`, the IC50 runs as follows: (WT cells) 24 µM; under setting [1], over 25 µM.

For the molecule `Cc1ccc(S(=O)(=O)Nc2ccc(N=Nc3ccc(O)cc3)cc2)cc1`, the IC50 (WT cells) was 17 µM and the IC50 under setting [1] was over 25 µM.

`Cc1ccc2nc(N/N=C/c3ccccc3F)nc(-c3ccccc3)c2c1`: the 50% inhibitory concentration (IC50) by setting is: (WT cells) 7.54 µM; under setting [1], 16.6 µM.

Consider `Cc1ccc(Cl)cc1N1CCN(C(=O)c2cccc3c(=O)c(C)c(-c4ccccc4)oc23)CC1`, for which the IC50 reads like this: (WT cells) 9.75 µM; under setting [1], over 25 µM.

As for `Oc1cccc(C2c3[nH]c4ccccc4c3CCN2Cc2cnn(-c3ccccc3)c2)c1` (configuration not stated), the IC50 by setting is: (WT cells) > 25 µM (inactive); under setting [1], over 25 µM.

For the molecule `COC(=O)[C@@H]1CC[C@H](C)[C@@H](c2ccc(C)cc2)N1C(=O)c1ccc(/C=N/O[C@@H](C)CN2CCCCc3nc(C)c(C)cc32)cc1`, the IC50 was 6.19 µM (WT cells) and over 25 µM under setting [1].

Take `Clc1ccc(C(c2nnnn2C2CCCCC2)N(Cc2cccnc2)Cc2ccco2)cc1` (configuration not stated): the IC50 is 15.5 µM (WT cells) and over 25 µM under setting [1].

As for `O=C(CCc1ccccc1)Nc1nnc(-c2ccc3c(c2)CCCC3)o1`, the IC50 runs as follows: (WT cells) 8.76 µM; under setting [1], over 25 µM.

For `O=C(c1ccco1)N1CCN(c2c(-c3ccccc3)c3cc(Cl)ccc3[nH]c2=O)CC1`, the IC50 (WT cells) is 13.2 µM and the IC50 under setting [1] was over 25 µM.

Consider `CCN(Cc1ccccc1)C(c1cccs1)c1nnnn1C1CCCCC1` (configuration not stated), for which the IC50 was 8.92 µM (WT cells) and over 25 µM under setting [1].

On to `CCOC(=O)N1CCC(NC(=O)c2cc(-c3ccc(F)cc3)[nH]c2C)CC1`, for which the IC50 was > 25 µM (inactive) (WT cells) and over 25 µM under setting [1].

As to `COc1ccc(-c2nsc3c(N4CCCCC4C)ncnc23)cc1` (configuration not stated), the IC50 runs as follows: (WT cells) 18.9 µM; under setting [1], over 25 µM.

As for `CCOC(=O)C1=NN(c2ccccc2)C2(S1)SC(C(C)=O)=C(C)N2c1ccccc1` (configuration not stated), the IC50 is 7.84 µM (WT cells) and over 25 µM under setting [1].

Turning to `COC(=O)C1C(=O)NCC1c1ccccc1` (configuration not stated), the IC50 is > 25 µM (inactive) (WT cells) and over 25 µM under setting [1].

Consider `COc1ccc(/C=C/C(=O)c2ccc(O)cc2)cc1COc1ccc(F)cc1`, for which the IC50 is 11.9 µM (WT cells) and over 25 µM under setting [1].

`CCCCSc1nnc(-c2ccccc2)c2ccccc12`: the IC50 by setting is: (WT cells) 24.9 µM (inactive); under setting [1], over 25 µM.

Consider `CCOC(=O)/C(=C/c1ccc(N2CCC(c3ccccc3)=N2)cc1)C(C)=O`, for which the IC50 is > 25 µM (inactive) (WT cells) and over 25 µM under setting [1].

In the case of `N#Cc1sc2nc(C3CC3)cc(-c3ccc(Cl)cc3)c2c1N`, the IC50 is 11.7 µM (WT cells) and 19.5 µM under setting [1].

Consider `CCCn1c2c(c(O)c(C(=O)Nc3nccs3)c1=O)CCCC2`, for which the IC50 is, setting by setting: (WT cells) 12.7 µM; under setting [1], over 25 µM.

As for `CCCCCC(O)c1cccc(OCc2ccc3ccccc3n2)c1` (configuration not stated), the IC50 by setting is: (WT cells) 14.9 µM; under setting [1], over 25 µM.

As for `CCNc1nc(SCCOc2ccc(Cl)cc2Cl)nc(N(C)C)n1`, the IC50 is 8.3 µM (WT cells) and 23.8 µM under setting [1].

As for `O=C(c1ccccc1)c1cc(Cl)ccc1N1C(=O)C=CC1=O`, the IC50 is > 25 µM (inactive) (WT cells) and over 25 µM under setting [1].

Regarding `COc1ccccc1N1CCN(C(=O)c2oc3cc(C)cc(C)c3c2C)CC1`, the IC50 runs as follows: (WT cells) 23.9 µM; under setting [1], over 25 µM.

As for `CCCOP(=O)(OCCC)C(Nc1cccc(C(F)(F)F)c1)c1ccc(C)cc1` (configuration not stated), the IC50 runs as follows: (WT cells) 11.2 µM; under setting [1], over 25 µM.

Take `CC(C)(C)Nc1nc(SCc2ccccc2)nc(N2CCOCC2)n1`: the IC50 by setting is: (WT cells) 17.3 µM; under setting [1], over 25 µM.

Consider `CCOc1ccc(NCc2nnc(SCc3ccc(Cl)cc3)n2-c2ccccc2)cc1`, for which the IC50 was > 25 µM (inactive) (WT cells) and over 25 µM under setting [1].

Take `CC1CC2(CCCC2)N(C(=O)c2ccccc2)Cc2ccccc21` (configuration not stated): the IC50 by setting is: (WT cells) 24.9 µM (inactive); under setting [1], over 25 µM.

Take `Cc1ccc(-c2cc(C(F)F)n3ncc(C(=O)Nc4c(C)nn(Cc5ccccc5Cl)c4C)c3n2)cc1`: the IC50 was 16.2 µM (WT cells) and over 25 µM under setting [1].

With `CCN1CCN(c2ccc(NC(=O)c3ccc4c(c3)OCO4)cc2)CC1`, the IC50 is > 25 µM (inactive) (WT cells) and over 25 µM under setting [1].

With `N=c1c(C(=O)NCc2ccco2)cc2c(=O)n3ccccc3nc2n1Cc1ccc(Cl)cc1`, the IC50 by setting is: (WT cells) > 25 µM (inactive); under setting [1], over 25 µM.

Regarding `CN(C)c1ccc(O)c2c1CC1CC3[C@@H](N(C)C)C(=O)C(C(N)=O)=C(O)[C@]3(O)C(=O)C1=C2O` (some centres not stated), the IC50 (WT cells) is > 25 µM (inactive) and the IC50 under setting [1] was over 25 µM.

In the case of `Cc1ccc(C2=NN(S(=O)(=O)c3ccccc3)C(c3ccccc3O)C2)cc1` (configuration not stated), the IC50 (WT cells) is 3.89 µM and the IC50 under setting [1] was 24.4 µM.

Turning to `O=C(c1c(F)c(F)c(F)c(F)c1F)N(Cc1ccccc1)Cc1ccccc1`, the IC50 by setting is: (WT cells) 15 µM; under setting [1], 22.4 µM.

For `OC(CNCc1ccc(Cl)cc1)(c1ccccc1)c1ccc(F)cc1` (configuration not stated), the IC50 (WT cells) was > 25 µM (inactive) and the IC50 under setting [1] was over 25 µM.

On to `Cc1ccc2cc(CN(C(=O)c3ccco3)c3ccccc3C)c(=O)[nH]c2c1`, for which the IC50 (WT cells) is > 25 µM (inactive) and the IC50 under setting [1] was over 25 µM.

On to `C[C@@H](C[C@@H](O)[C@H](O)C(C)(C)O)[C@@H]1CC[C@]2(C)C3=CC[C@H]4C(C)(C)C(=O)CC[C@]4(C)[C@H]3CC[C@@]12C`, for which the IC50 reads like this: (WT cells) > 25 µM (inactive); under setting [1], over 25 µM.

`CC(=O)Cc1nsc(NC(=O)c2ccc(-c3cc(Cl)ccc3Cl)o2)n1`: the IC50 (WT cells) is > 25 µM (inactive) and the IC50 under setting [1] is over 25 µM.

As to `Cn1cc(C(=O)c2ccc(Cl)cc2Cl)cc1C(=O)O`, the IC50 is, setting by setting: (WT cells) > 25 µM (inactive); under setting [1], over 25 µM.

For `COc1cc(/C=C2\SC(=O)N(c3ccccc3Cl)C2=O)cc([N+](=O)[O-])c1O`, the IC50 (WT cells) is 13.6 µM and the IC50 under setting [1] came out at 20.8 µM.

`CSc1nncn1/N=C/c1ccc2c(c1)OCO2`: the IC50 is > 25 µM (inactive) (WT cells) and over 25 µM under setting [1].

On to `OCCN(CCO)CC(O)COc1ccc(C23CC4CC(CC(C4)C2)C3)cc1` (configuration not stated), for which the IC50 (WT cells) is > 25 µM (inactive) and the IC50 under setting [1] is over 25 µM.

For `CCOC(=O)CSc1n[nH]c(-c2cccnc2)n1`, the IC50 was > 25 µM (inactive) (WT cells) and over 25 µM under setting [1].

As to `COCCn1c(SCc2cc(C(C)=O)ccc2OC)nc2cc(Cl)ccc2c1=O`, the IC50 runs as follows: (WT cells) 8.09 µM; under setting [1], over 25 µM.

For the molecule `N#Cc1nc(-c2ccco2)oc1NCc1ccc(F)cc1`, the IC50 was > 25 µM (inactive) (WT cells) and over 25 µM under setting [1].

As for `CC(NC(c1ccccc1)c1ccccc1)C(=O)N1CCCc2ccccc21` (configuration not stated), the IC50 runs as follows: (WT cells) 19.9 µM (inactive); under setting [1], over 12.5 µM.

With `C/C(=N\O)c1ccc2c3c([nH]c2c1)CCCC3`, the IC50 (WT cells) was > 25 µM (inactive) and the IC50 under setting [1] was over 25 µM.

Regarding `COCCN(C(=S)Nc1c(C)cc(C)cc1C)C(C)c1cccs1` (configuration not stated), the IC50 reads like this: (WT cells) 23.3 µM; under setting [1], over 25 µM.

Consider `CCOC(=O)C1=C(C)Nc2sc(C(=O)c3ccc(F)cc3)c(N)c2C1c1ccc(C(=O)OC)cc1` (configuration not stated), for which the IC50 reads like this: (WT cells) 2.57 µM; under setting [1], over 25 µM.

For the molecule `CCOP(=O)(OCC)c1nc(/C=C/c2ccccc2)oc1NCc1ccccc1`, the IC50 is > 25 µM (inactive) (WT cells) and over 25 µM under setting [1].

On to `COc1ccccc1-c1nnc(SCC(=O)NCc2c(C)c(Cl)cc(C(C)C)c2O)o1`, for which the concentration for half-maximal inhibition (IC50) runs as follows: (WT cells) 9.66 µM; under setting [1], over 25 µM.

In the case of `O=c1[nH]c(=O)n(Cc2ccco2)c2c1C(C(F)(F)F)(C(F)(F)F)N=C(Cc1ccccc1)N2`, the IC50 was > 25 µM (inactive) (WT cells) and over 12.5 µM under setting [1].

On to `O=C(CSc1ncn[nH]1)NCc1ccccc1`, for which the IC50 by setting is: (WT cells) > 25 µM (inactive); under setting [1], over 25 µM.

Regarding `CCCCN(C(=O)c1cccc2c(=O)c(C)c(-c3ccccc3)oc12)c1ccccc1`, the IC50 (WT cells) is 14.7 µM and the IC50 under setting [1] is over 25 µM.

`CCOc1ccc(OCC)c(S(=O)(=O)NCCOC23CC4CC(CC(C4)C2)C3)c1`: the IC50 is > 25 µM (inactive) (WT cells) and over 25 µM under setting [1].

With `Cc1sc(NC(=O)CSc2nnnn2C2CCCCC2)c(C#N)c1C`, the IC50 is, setting by setting: (WT cells) > 25 µM (inactive); under setting [1], over 25 µM.

For `O=C(CCc1nc(-c2ccccc2)no1)NCCc1ccccc1`, the IC50 by setting is: (WT cells) > 25 µM (inactive); under setting [1], over 25 µM.

For the molecule `CCCCc1nc2ccccc2c(=O)n1-c1ccc(Cl)cc1[N+](=O)[O-]`, the IC50 was > 25 µM (inactive) (WT cells) and over 25 µM under setting [1].

As for `O=C(O)C1CCCCC1C(=O)Nc1ccc(F)cc1F` (configuration not stated), the IC50 is, setting by setting: (WT cells) > 25 µM (inactive); under setting [1], over 25 µM.

In the case of `COc1ccc2ccc3c(c2c1)N=CC1(O3)N(C)c2ccccc2C1(C)C` (configuration not stated), the IC50 is 6.02 µM (WT cells) and over 25 µM under setting [1].

In general, IC50 refers to the point on the concentration scale where inhibition reaches its midpoint.
